From ChEMBL document CHEMBL3351354, “From the covalent linkage of drugs to novel inhibitors of ribonucleotide reductase: synthesis and biological evaluation of valproic esters of 3'-C-methyladenosine” (Bioorg Med Chem Lett, 2014)
Values belong to the compound of their own block, whether it stands above or below them. Calls of active or inactive are those of the source. The rule behind the calls is not given here.

Columns and labels:
[1] = Growth inhibition of human HL60 cells after 48 hrs by MTT assay; type: functional, cell-based, HL-60
K562 = assay: Growth inhibition of human K562 cells after 48 hrs by MTT assay; type: functional, cell-based
HuT78 = assay: Growth inhibition of human HUT78 cells after 48 hrs by MTT assay; type: functional, cell-based
HT-29 = assay: Growth inhibition of human HT-29 cells after 48 hrs by MTT assay; type: functional, cell-based
MCF7 = assay: Growth inhibition of human MCF7 cells after 48 hrs by MTT assay; type: functional, cell-based
HeLa = assay: Growth inhibition of human HeLa cells after 48 hrs by MTT assay; type: functional, cell-based
[2] = Growth inhibition of human Caco2 cells after 48 hrs by MTT assay; type: functional, cell-based, Caco-2
[3] = Cytotoxicity against human HL60 cells after 24 to 48 hrs by trypan blue dye exclusion method; type: functional, cell-based; settings: HL-60
HL-60 [4] = assay: Induction of apoptosis in human HL60 cells after 24 to 48 hrs by acridine orange and ethidium bromide staining based fluorescence microscopy; type: functional, cell-based
[5] = biological target: T1, Histone deacetylase (Homo sapiens) (UniProt Q13547+O15379+Q9UBN7+Q92769+Q9UQL6+Q8WUI4+Q9BY41+Q96DB2+P56524+Q9UKV0+Q969S8); assay: Inhibition of HDAC in human HL60 cells assessed as increase in histone H3 acetylation at 1 mM after 24 hrs by Western blotting method; type: cell-based; settings: HL-60
HL-60 [6] = assay: Induction of cell cycle arrest in human HL60 cells assessed as accumulation at G1 phase at 2 mM after 24 hrs by propidium iodide staining based flow cytometry (reference value: 32%); type: functional
HL-60 [7] = assay: Induction of cell cycle arrest in human HL60 cells assessed as accumulation at S phase at 2 mM after 24 hrs by propidium iodide staining based flow cytometry (reference value: 54%); type: functional
HL-60 [8] = assay: Induction of cell cycle arrest in human HL60 cells assessed as accumulation at G2M phase at 2 mM after 24 hrs by propidium iodide staining based flow cytometry (reference value: 12%); type: functional
HL-60 [9] = assay: Induction of cell cycle arrest in human HL60 cells assessed as accumulation at G1 phase at 5 mM after 24 hrs by propidium iodide staining based flow cytometry (reference value: 32%); type: functional
HL-60 [10] = assay: Induction of cell cycle arrest in human HL60 cells assessed as accumulation at S phase at 5 mM after 24 hrs by propidium iodide staining based flow cytometry (reference value: 54%); type: functional
HL-60 [11] = assay: Induction of cell cycle arrest in human HL60 cells assessed as accumulation at G2M phase at 5 mM after 24 hrs by propidium iodide staining based flow cytometry (reference value: 12%); type: functional
HL-60 [12] = assay: Induction of ROS generation in human HL60 cells at 50 and 100 uM after 24 hrs by DCFH-DA staining based flow cytometry; type: functional, cell-based
[13] = biological target: T1, Histone deacetylase (Homo sapiens); assay: Inhibition of HDAC in human HL60 cells assessed as increase in histone H3 acetylation at 10 and 100 uM after 24 hrs by Western blotting method; type: cell-based; settings: HL-60
HL-60 [14] = assay: Induction of cell cycle arrest in human HL60 cells assessed as accumulation at G1 phase at 100 uM after 24 hrs by propidium iodide staining based flow cytometry (reference value: 32%); type: functional
HL-60 [15] = assay: Induction of cell cycle arrest in human HL60 cells assessed as accumulation at S phase at 100 uM after 24 hrs by propidium iodide staining based flow cytometry (reference value: 54%); type: functional
HL-60 [16] = assay: Induction of cell cycle arrest in human HL60 cells assessed as accumulation at G2M phase at 100 uM after 24 hrs by propidium iodide staining based flow cytometry (reference value: 12%); type: functional
[17] = Half life in pH 7.4 isotonic sodium phosphate buffer at 37 degC by HPLC-DAD-ESI-MS method; type: physicochemical
[18] = Half life in RPMI-1640 medium containing 10% fetal calf serum assessed as compound disappearance by HPLC-DAD-ESI-MS method; type: ADME, Bos taurus; settings: cattle
[19] = biological target: T2, Ribonucleotide reductase (Homo sapiens) (UniProt P23921+Q7LG56); assay: Inhibition of ribonucleotide reductase in human HL60 cells assessed as intracellular dNTP pools level at 0.3 mM after 1 hr by HPLC method; type: cell-based; settings: HL-60
[20] = biological target: T2, Ribonucleotide reductase (Homo sapiens); assay: Inhibition of human recombinant ribonucleotide reductase at 1.2 mM; type: protein-complex assay
[21] = biological target: T2, Ribonucleotide reductase (Homo sapiens); assay: Inhibition of human recombinant ribonucleotide reductase at 1.2 mM in presence of 1 mM ATP; type: protein-complex assay
[22] = biological target: T2, Ribonucleotide reductase (Homo sapiens); assay: Inhibition of human recombinant ribonucleotide reductase at 1.2 mM in presence of 3 mM ATP; type: protein-complex assay
[23] = biological target: T2, Ribonucleotide reductase (Homo sapiens); assay: Inhibition of human recombinant ribonucleotide reductase at 1.2 mM in presence of dGTP; type: protein-complex assay
Ribonucleotide reductase = biological target: T3, Ribonucleotide reductase (Homo sapiens, UniProt P23921+Q7LG56); assay: Competitive inhibition of human recombinant ribonucleotide reductase in presence of varying levels of ATP by Dixon plot; type: protein-complex assay
T3 sequence (P23921 whole entry): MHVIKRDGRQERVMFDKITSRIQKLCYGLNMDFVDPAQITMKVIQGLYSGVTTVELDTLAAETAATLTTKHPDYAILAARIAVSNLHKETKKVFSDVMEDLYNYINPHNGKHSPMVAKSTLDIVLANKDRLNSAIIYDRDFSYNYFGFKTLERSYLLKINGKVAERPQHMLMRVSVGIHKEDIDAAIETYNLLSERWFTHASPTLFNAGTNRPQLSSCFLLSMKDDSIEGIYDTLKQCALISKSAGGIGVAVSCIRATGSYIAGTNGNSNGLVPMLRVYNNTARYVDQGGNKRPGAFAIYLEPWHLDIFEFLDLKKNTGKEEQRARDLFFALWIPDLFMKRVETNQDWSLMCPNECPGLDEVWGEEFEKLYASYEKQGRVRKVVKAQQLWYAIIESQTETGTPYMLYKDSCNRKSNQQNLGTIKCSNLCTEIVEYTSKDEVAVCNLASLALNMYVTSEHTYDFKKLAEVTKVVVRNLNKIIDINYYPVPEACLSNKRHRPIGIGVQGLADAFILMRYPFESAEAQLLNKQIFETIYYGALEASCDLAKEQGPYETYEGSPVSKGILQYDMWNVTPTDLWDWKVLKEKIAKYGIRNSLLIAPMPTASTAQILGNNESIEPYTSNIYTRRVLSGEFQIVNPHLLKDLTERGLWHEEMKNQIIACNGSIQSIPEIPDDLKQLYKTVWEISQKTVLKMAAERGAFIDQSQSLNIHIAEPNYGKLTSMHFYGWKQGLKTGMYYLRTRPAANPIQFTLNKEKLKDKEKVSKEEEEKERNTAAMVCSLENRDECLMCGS
T3 sequence (Q7LG56 whole entry): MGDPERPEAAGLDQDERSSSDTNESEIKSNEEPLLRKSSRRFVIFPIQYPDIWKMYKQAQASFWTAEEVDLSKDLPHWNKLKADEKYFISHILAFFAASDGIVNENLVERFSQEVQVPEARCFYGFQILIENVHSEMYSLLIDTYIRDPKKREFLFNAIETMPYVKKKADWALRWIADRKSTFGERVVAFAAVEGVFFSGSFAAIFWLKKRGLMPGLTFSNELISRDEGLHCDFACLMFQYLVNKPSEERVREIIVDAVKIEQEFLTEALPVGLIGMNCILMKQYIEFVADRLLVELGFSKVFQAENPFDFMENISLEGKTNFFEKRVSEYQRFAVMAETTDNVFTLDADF

[24] = Homo sapiens, HL-60, 48 h, read-out: IC50
[25] = Homo sapiens, K562, 48 h, read-out: IC50
[26] = Homo sapiens, HuT78, 48 h, read-out: IC50
[27] = Homo sapiens, HT-29, 48 h, read-out: IC50
[28] = Homo sapiens, MCF7, 48 h, read-out: IC50
[29] = Homo sapiens, HeLa, 48 h, read-out: IC50
[30] = Homo sapiens, Caco-2, 48 h, read-out: IC50

- IC50 (K562; k562): ND(Insoluble)
- IC50 (HT-29; ht-29): ND(Insoluble)
- IC50 (MCF7; mcf7): ND(Insoluble)
- IC50 (HeLa; hela): ND(Insoluble)
SMILES: CCCC(CCC)C(=O)Nc1ncnc2c1ncn2[C@@H]1O[C@H](COC(=O)C(CCC)CCC)[C@@](C)(O)[C@H]1OC(=O)C(CCC)CCC
- IC50 ([1]; hl-60): ND(Insoluble)
- IC50 (HuT78; hut78): ND(Insoluble)
- IC50 ([2]; caco-2): ND(Insoluble)

- IC50 (K562; [25]): > 1000 µM
- IC50 (HT-29; [27]): > 1000 µM
- IC50 (MCF7; [28]): 230 µM
- IC50 (HeLa; [29]): 1000 µM
- inhibition [5]: Active
SMILES: CCCC(CCC)C(=O)O [VALPROIC ACID]
- IC50 [3]: 1700 µM
- AC50 (HL-60 [4]; Homo sapiens, HL-60, read-out: AC50): 2500 µM
- IC50 [1, 24]: 1700 µM
- IC50 (HuT78; [26]): 1800 µM
- IC50 [2, 30]: > 1000 µM
- Activity (HL-60 [6]): 78%
- Activity (HL-60 [7]): 8%
- Activity (HL-60 [8]): 14%
- Activity (HL-60 [9]): 39%
- Activity (HL-60 [10]): 5%
- Activity (HL-60 [11]): 55%
- Activity (HL-60 [12]): inactive

- IC50 (K562; [25]): 200 µM
- IC50 (HT-29; [27]): > 200 µM
- IC50 (MCF7; [28]): > 200 µM
- IC50 (HeLa; [29]): > 200 µM
- inhibition [13]: inactive
- half-life [17]: > 72 h
- half-life [18]: > 72 h
- inhibition [19]: Active
- inhibition [20]: Active
- inhibition [21]: Active
- inhibition [22]: inactive
- inhibition [23]: inactive
- Ki (Ribonucleotide reductase): 400 µM
SMILES: CCCC(CCC)C(=O)OC[C@H]1O[C@@H](n2cnc3c(N)ncnc32)[C@H](O)[C@]1(C)O
- AC50 (HL-60 [4]; hl-60): Not Active
- IC50 [1, 24]: 67.1 µM
- IC50 (HuT78; [26]): 142 µM
- IC50 [2, 30]: > 200 µM
- Activity (HL-60 [14]): 42%
- Activity (HL-60 [15]): 44%
- Activity (HL-60 [16]): 14%
